This is an account of results in ChEMBL document CHEMBL1131332, “(-)-6-Chloro-2-[(1-furo[2, 3-c]pyridin-5-ylethyl)thio]-4-pyrimidinamine, PNU-142721, a new broad spectrum HIV-1 non-nucleoside reverse transcriptase inhibitor” (J Med Chem, 1998).

As a reminder, the IC50 is the concentration that gives 50% inhibition. High values mean a need for much substance, low ones inhibition by little substance. Usually Tmax stands for the time from dosing to the highest level. Usually Cmax stands for the peak of the concentration-time curve. Broadly, the bioavailability is dose-corrected exposure relative to a reference, in per cent. As a reminder, the half-life is how long it takes for the measured level to halve. For orientation: CL/F means clearance divided by bioavailability, as obtained after extravascular dosing. As usually defined, the Inhibition is the change of the read-out against control, counted positive when it falls. The low end stands for little suppression, the high end for strong suppression.

The test system of data set [1] is Human immunodeficiency virus 1. Description: In vitro antiviral activity against NNRTI-resistant DLVR-IIIB (L100I) HIV-1 variant. Format: functional, organism-based. Conditions: Human immunodeficiency virus 1, IIIB.
The target in data set [2] is Human immunodeficiency virus type 1 reverse transcriptase (Human immunodeficiency virus 1, UniProt Q72547, L100I). Kind of data set: Inhibitory activity against L100I mutant HIV-1 reverse transcriptase.
The test system of data set [3] is Human immunodeficiency virus 1. Description: In vitro antiviral activity against NNRTI-resistant DLVR-MF (P236L) HIV-1 variant. Format: functional, organism-based. Conditions: Human immunodeficiency virus 1, IIIB.
For data set [4], the system named is Human immunodeficiency virus 1. Description: In vitro antiviral activity against NNRTI-resistant R88703R-IIIB (Y181C) HIV-1 variant. Conditions: Human immunodeficiency virus 1, IIIB. It counts as functional, organism-based.
For data set [5], the target named is Human immunodeficiency virus type 1 reverse transcriptase (Human immunodeficiency virus 1, UniProt Q72547, P236L). Description: Inhibitory activity against P236L mutant HIV-1 reverse transcriptase.
Data set [6] concerns the target Human immunodeficiency virus type 1 reverse transcriptase (Human immunodeficiency virus 1, UniProt Q72547, E233V). Description: Inhibitory activity against E233V mutant HIV-1 reverse transcriptase.
Data set [7] deals with Human immunodeficiency virus 1. Kind of data set: In vitro antiviral activity against NNRTI-resistant IIIB (WT) HIV-1 variant. Format: functional, organism-based. Conditions: Human immunodeficiency virus 1, IIIB.
Data set [8] relates to Human immunodeficiency virus 1. Description: In vitro antiviral activity against NNRTI-resistant L-697661R-IIIB (Y181C) HIV-1 variant. It counts as functional, organism-based. Conditions: Human immunodeficiency virus 1, IIIB.
Data set [9] addresses Human immunodeficiency virus type 1 reverse transcriptase (Human immunodeficiency virus 1, UniProt Q72547, Y188H). Kind of data set: Inhibitory activity against Y188H mutant HIV-1 reverse transcriptase.
Data set [10] deals with Human immunodeficiency virus type 1 reverse transcriptase (Human immunodeficiency virus 1, UniProt Q72547). Description: Inhibitory activity against wild type HIV-1 reverse transcriptase (WT-RT).
The target in data set [11] is Human immunodeficiency virus type 1 reverse transcriptase (Human immunodeficiency virus 1, UniProt Q72547, Y181C). Kind of data set: Inhibitory activity against Y181C mutant HIV-1 reverse transcriptase.
Data set [12] is described as follows: Pharmacokinetic parameter (tmax ) was evaluated in Spargue-Dawley rat when given peroral at dose 30 mg/kg. It counts as ADME, organism-based. Details: dose 30 mg/kg, route oral. Conditions: Sprague-Dawley, in vivo, po.
Data set [13] can be described thus: Pharmacokinetic parameter (Cmax ) was evaluated in Spargue-Dawley rat when given intravenously at dose 15 mg/kg. It counts as ADME, organism-based. On the set-up: dose 15 mg/kg, route intravenous. Conditions: Sprague-Dawley, in vivo, iv.
Data set [14] is described as follows: Pharmacokinetic parameter (Absolute oral bioavailability) was evaluated in Spargue-Dawley rat when given peroral at dose 80 mg/kg. It counts as ADME, organism-based. Conditions: Sprague-Dawley, in vivo.
The nature of data set [15]: Pharmacokinetic parameter (Absolute oral bioavailability) was evaluated in Spargue-Dawley rat when given peroral at dose 30 mg/kg. It counts as ADME, organism-based. Conditions: Sprague-Dawley, in vivo.
Data set [16] in a line: Pharmacokinetic parameter (tmax ) was evaluated in Spargue-Dawley rat when given intravenously at dose 15 mg/kg. It counts as ADME, organism-based. Details: dose 15 mg/kg, route intravenous. Conditions: Sprague-Dawley, in vivo, iv.
Data set [17] in a line: Pharmacokinetic parameter (Vss ) was evaluated in Spargue-Dawley rat when given intravenously at dose 15 mg/kg. Format: ADME, organism-based. Conditions: Sprague-Dawley, in vivo, iv, read-out: Vss. Details: dose 15 mg/kg, route intravenous.
Data set [18] can be described thus: Apparent terminal disposition half-life (t1/2 ) was evaluated in Spargue-Dawley rat when given intravenously at dose 15 mg/kg. On the set-up: dose 15 mg/kg, route intravenous. Conditions: Sprague-Dawley, in vivo, iv. Format: ADME, organism-based.
Data set [19] can be described thus: Pharmacokinetic parameter (Cmax ) was evaluated in Spargue-Dawley rat when given peroral at dose 80 mg/kg. Format: ADME, organism-based. Details: dose 80 mg/kg, route oral. Conditions: Sprague-Dawley, in vivo, po.
Data set [20] is described as follows: Pharmacokinetic parameter (CL/F) was evaluated in Spargue-Dawley rat when given peroral at dose 80 mg/kg. Format: ADME, organism-based. On the set-up: dose 80 mg/kg, route oral. Conditions: Sprague-Dawley, in vivo, po.
A short description of data set [21]: Pharmacokinetic parameter (CL/F ) was evaluated in Spargue-Dawley rat when given peroral at dose 30 mg/kg. Format: ADME, organism-based. Conditions: Sprague-Dawley, in vivo, po. Details: dose 30 mg/kg, route oral.
A short description of data set [22]: Pharmacokinetic parameter (tmax) was evaluated in Spargue-Dawley rat when given peroral at dose 80 mg/kg. Format: ADME, organism-based. Details: dose 80 mg/kg, route oral. Conditions: Sprague-Dawley, in vivo, po.
Data set [23] in a line: Pharmacokinetic parameter (Cmax ) was evaluated in Spargue-Dawley rat when given peroral at dose 30 mg/kg. It counts as ADME, organism-based. Details: dose 30 mg/kg, route oral. Conditions: Sprague-Dawley, in vivo, po.
The nature of data set [24]: Apparent terminal disposition half-life (t1/2) was evaluated in Spargue-Dawley rat when given peroral at dose 80 mg/kg. Conditions: Sprague-Dawley, in vivo, po. On the set-up: dose 80 mg/kg, route oral. It counts as ADME, organism-based.
Data set [25] can be described thus: Apparent terminal disposition half-life (t1/2 ) was evaluated in Spargue-Dawley rat when given peroral at dose 30 mg/kg. Format: ADME, organism-based. Details: dose 30 mg/kg, route oral. Conditions: Sprague-Dawley, in vivo, po.
Data set [26] deals with Human immunodeficiency virus 1. Kind of data set: Inhibition of p24 production in NNRTI-resistant L-697661R-IIIB (Y181C) HIV-1 variant at concentration 3 um. It counts as functional.
Data set [27] concerns Human immunodeficiency virus 1. Kind of data set: Inhibition of p24 production in NNRTI-resistant DLVR-MF (P236L) HIV-1 variant at concentration 0.01 um. It counts as functional.

As for `CC(Sc1nc(N)cc(Cl)n1)c1cc2ccoc2cn1` (configuration not stated), the half-inhibitory concentration (IC50) in [1] worked out at 60 nM; in [2] it was 44 nM; in data set [3], 10 nM; in data set [4] it was 170 nM; in data set [5], 22 nM; in [6], 44 nM. Also, the IC50 stood at 2 nM in [7]; 2400 nM in data set [8]; 55 nM in [9]; 24 nM in data set [10]; 360 nM in data set [11].

On to `C[C@H](Sc1nc(N)cc(Cl)n1)c1cc2ccoc2cn1`, for which the IC50 in data set [1] was 70 nM; in data set [2], 39 nM; in data set [3] it was 8 nM; in data set [4], 170 nM; in data set [5] it was 22 nM; in data set [6], 17 nM. The IC50 in data set [7] came to 1 nM; in [8], 1100 nM; in [9] it was 77 nM; in data set [10], 20 nM; in data set [11], 179 nM. Further, the figures for the Tmax in [12], in [16] and in data set [22] were 1.4 h, 1.98 min and 3.8 h, respectively. The Cmax in data set [13] worked out at 123 µM; in data set [19], 103 µM; in data set [23], 52 µM. In addition, the bioavailability in data set [14] and in data set [15] was 94% each time. Also, in data set [17], the Vd was found to be 0.55 L/kg. The half-life in [18] is 0.7 h; in data set [24], 1.5 h; in [25], 0.78 h. In addition, the apparent clearance CL/F in [20] and in data set [21] was 7.1 mL/min/kg throughout.

As to `CCc1cc(NCc2nc3c(Cl)ccc(Cl)c3o2)c(O)nc1C` [L-697661], the IC50 is 4000 nM in data set [1]; 430 nM in [3]; 7700 nM in data set [4]; 110 nM in [7]; greater than 10000 nM in [8].

On to `CC(=O)c1ccccc1NC(C(N)=O)c1c(Cl)cccc1Cl` (configuration not stated), for which the IC50 was 6500 nM in data set [1]; 80 nM in data set [3]; greater than 10000 nM in data set [4]; 150 nM in data set [7]; greater than 10000 nM in data set [8].

Regarding `CC(C)Nc1cccnc1N1CCN(C(=O)c2cc3cc(NS(C)(=O)=O)ccc3[nH]2)CC1` [DELAVIRDINE], the IC50 in data set [1] was greater than 10000 nM; in data set [3] it was greater than 10000 nM; in data set [4] it was 1000 nM; in data set [7] it was 50 nM.

On to `C[C@@H](Sc1nc(N)cc(Cl)n1)c1cc2ccoc2cn1`, for which the Inhibition in data set [26] and in data set [27] was 0% in each case. The IC50 is greater than 10 nM in [3]; 25 nM in data set [5]; greater than 3000 nM in data set [8]; 85 nM in [10]; greater than 50000 nM in data set [11].
